Measured values: US8377983B2, “Benzazole derivatives, compositions, and methods of use as aurora kinase inhibitors” (TransTech Pharma, Inc., priority 2006, dated 2013)

Columns and labels:
[1] = system: human MiaPaCa-2 pancreatic xenografts; test: MiaPaCa-2 xenograft model, Example 88 alone and in combination with gemcitabine; format: in vivo, athymic mice; conditions: for Median Tumor Size: Example 88 10 mg/kg i.p. b.i.d. 10 days, gemcitabine 120 mg/kg i.p. q3d×4
Experimental: (§1) Compounds were dosed on the following schedules:
2) Gemcitabine was dosed 120 mg/kg, i.p., q3d×4 (days 1, 4, 7, 10).
Drug treatment started when mean tumor sizes reached approximately 120 mg (day 8). Mice-bearing sc tumors were randomized, and treatment groups consisted of 8 mice. The median tumor size for each group at various points in the study are listed below in Table B.

[2] = system: human MiaPaCa-2 pancreatic xenografts; test: MiaPaCa-2 xenograft model, Example 88 alone and in combination with erlotinib; format: in vivo, athymic mice; conditions: for Median Tumor Size: Example 88 10 mg/kg i.p. b.i.d. 10 days, erlotinib 50 mg/kg p.o. daily 14 days
Experimental: as §1
2) Erlotinib was dosed 50 mg/kg, p.o., daily for 14 days (days 1-14).
Mice-bearing sc tumors were randomized, and treatment groups consisted of 8 mice.

[3] = system: human tumor xenografts derived from pancreas and breast tissues; test: Single agent antitumor activity in established human tumor xenografts; format: in vivo; conditions: established human tumor xenografts in athymic mice
Text: While the compounds of the present invention may be used as a single agent, they may also be used as part of a combination therapy.

BT-474 breast xenograft = test: BT-474 xenograft model, Example 88 alone and in combination with trastuzumab; format: in vivo, athymic SCID mice; conditions: for Median Tumor Size: Example 88 30 mg/kg i.p. b.i.d. 3 days on, 2 days off, 5 cycles, trastuzumab 10 mg/kg i.p. twice weekly 4 weeks
Text: Mice-bearing sc tumors were randomized, and treatment groups consisted of 10 mice.

[4] = day 8 of study (treatment start)
[5] = day 42, out of 8 mice, Example 88 10 mg/kg, gemcitabine 120 mg/kg
[6] = previous dose response studies in this model, 10 mg/kg
[7] = day 24, out of 10 mice, Table CC head: Example 88 10 mg/kg, Trastuzumab 10 mg/kg

O=C(Nc1ccc2cn[nH]c2c1)c1cc2nc(Nc3ccccc3C(F)(F)F)[nH]c2cc1N1CCNCC1 [Example 88, 6-Piperazin-1-yl-2-(2-trifluoromethylphenylamino)-1H-benzimidazole-5-carboxylic acid (1H-indazol-6-yl)-amide]
Median Tumor Size [1, 4]: 120 mg | Median Tumor Size ([1]; day 10 of study): 162 mg | Median Tumor Size ([1]; day 13 of study): 170 mg | Median Tumor Size ([1]; day 16 of study): 170 mg | Median Tumor Size ([1]; day 20 of study): 221 mg | Median Tumor Size ([1]; day 23 of study): 209 mg | Median Tumor Size ([1]; day 27 of study): 368 mg | Median Tumor Size ([1]; day 30 of study): 486 mg | Median Tumor Size ([1]; day 34 of study): 817 mg | Median Tumor Size ([1]; day 37 of study): 1055 mg | complete responders (CR, 100% reduction in tumor size) [1, 5]: 0/8 | partial responders (PR, greater than 50% reduction in tumor size) [1, 5]: 0/8 | Median Tumor Size ([1]; day 42 of study): 1629 mg | effectiveness of dose for inhibition of tumor growth [1, 6]: moderately effective dose | Median Tumor Size [2, 4]: 120 mg | Median Tumor Size ([2]; day 10 of study): 162 mg | Median Tumor Size ([2]; day 13 of study): 170 mg | Median Tumor Size ([2]; day 16 of study): 170 mg | Median Tumor Size ([2]; day 20 of study): 221 mg | Median Tumor Size ([2]; day 23 of study): 209 mg | Median Tumor Size ([2]; day 27 of study): 368 mg | Median Tumor Size ([2]; day 30 of study): 486 mg | Median Tumor Size ([2]; day 34 of study): 817 mg | Median Tumor Size ([2]; day 37 of study): 1055 mg | Median Tumor Size ([2]; day 42 of study): 1629 mg | effectiveness of dose for inhibition of tumor growth [2, 6]: moderately effective dose | antitumor activity as a single agent [3]: demonstrated antitumor activity | Median Tumor Size (BT-474 breast xenograft; day 4 of study): 120 mg | Median Tumor Size (BT-474 breast xenograft; day 7 of study): 152 mg | Median Tumor Size (BT-474 breast xenograft; day 10 of study): 153 mg | Median Tumor Size (BT-474 breast xenograft; day 14 of study): 179 mg | Median Tumor Size (BT-474 breast xenograft; day 17 of study): 149 mg | Median Tumor Size (BT-474 breast xenograft; day 21 of study): 142 mg | complete responders (CR) (BT-474 breast xenograft; [7]): 0/10 | partial responders (PR) (BT-474 breast xenograft; [7]): 0/10 | Median Tumor Size (BT-474 breast xenograft; day 24 of study): 138 mg | Median Tumor Size (BT-474 breast xenograft; day 28 of study): 104 mg
